Assay results: ChEMBL document CHEMBL1201862, “PubChem BioAssay data set” (2004)
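Where inhibition never reached the appropriate level, the endpoint shown equals the highest concentration tested. Otherwise, values were interpolated linearly from a five-concentration, 48-hour dose response in 96-well plates. Abbreviation: GI50, concentration required for 50% inhibition of growth.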 Activity calls are given as the source filed them. Rule as the data show it: active = GI50 up to about 1.1 µM and inactive = higher.

Columns and labels:
Assay in all cases: NCI-60 cell line screen, 48 h
OVCAR-8 = test system: OVCAR-8
RXF 393 = test system: RXF 393
HOP-62 = test system: HOP-62
UACC-257 = test system: UACC-257
A498 = test system: A498
NCI-H522 = test system: NCI-H522
BT-549 = test system: BT-549
COLO 205 = test system: COLO 205
M14 = test system: M14
K562 = test system: K562
HL-60 = test system: HL-60
ACHN = test system: ACHN
Malme-3M = test system: Malme-3M
SR = test system: SR
DU-145 = test system: DU-145
SK-OV-3 = test system: SK-OV-3
KM12 = test system: KM12
MCF7 = test system: MCF7
NCI/ADR-RES = test system: NCI/ADR-RES
Hs-578T = test system: Hs-578T
A549 = test system: A549
SK-MEL-2 = test system: SK-MEL-2
HOP-92 = test system: HOP-92
SK-MEL-5 = test system: SK-MEL-5
MDA-N = test system: MDA-N
IGROV-1 = test system: IGROV-1
786-0 = test system: 786-0
UACC-62 = test system: UACC-62
TK-10 = test system: TK-10
CAKI-1 = test system: CAKI-1
RPMI-8226 = test system: RPMI-8226
MDA-MB-435 = test system: MDA-MB-435
HCT-15 = test system: HCT-15
MDA-MB-231 = test system: MDA-MB-231
SF-268 = test system: SF-268
HCT-116 = test system: HCT-116
LOX IMVI = test system: LOX IMVI
SK-MEL-28 = test system: SK-MEL-28
OVCAR-5 = test system: OVCAR-5
SN12C = test system: SN12C
PC-3 = test system: PC-3
U-251 = test system: U-251
OVCAR-3 = test system: OVCAR-3
SNB-75 = test system: SNB-75
SW-620 = test system: SW-620
SF-295 = test system: SF-295
NCI-H226 = test system: NCI-H226
CCRF-CEM = test system: CCRF-CEM
HCC 2998 = test system: HCC 2998
SNB-19 = test system: SNB-19
T47D = test system: T47D
OVCAR-4 = test system: OVCAR-4
EKVX = test system: EKVX
NCI-H23 = test system: NCI-H23
NCI-H460 = test system: NCI-H460
UO-31 = test system: UO-31
HT-29 = test system: HT-29
SF-539 = test system: SF-539
MOLT-4 = test system: MOLT-4

For `O=S(=O)(c1ccc2ccccc2c1)N1CCN(S(=O)(=O)c2ccc3ccccc3c2)CC1`, the GI50 (OVCAR-8) was 93.1 µM (inactive), the GI50 (RXF 393) was > 100 µM (inactive) and the GI50 (HOP-62) was 33.5 µM (inactive). For the same compound, the GI50 (UACC-257) was > 100 µM (inactive), the GI50 (A498) was > 100 µM (inactive) and the GI50 (NCI-H522) was > 100 µM (inactive). The GI50 (BT-549) was > 100 µM (inactive), the GI50 (COLO 205) was > 100 µM (inactive) and the GI50 (M14) was > 100 µM (inactive). For the same compound, the GI50 (K562) was > 100 µM (inactive), the GI50 (HL-60) was > 100 µM (inactive) and the GI50 (ACHN) was > 100 µM (inactive). For the same compound, the GI50 (Malme-3M) was > 100 µM (inactive), the GI50 (SR) was > 100 µM (inactive) and the GI50 (DU-145) was > 100 µM (inactive). The GI50 (SK-OV-3) was 51.3 µM (inactive), the GI50 (KM12) was > 100 µM (inactive) and the GI50 (MCF7) was > 100 µM (inactive). For the same compound, the GI50 (NCI/ADR-RES) was > 100 µM (inactive), the GI50 (Hs-578T) was 31 µM (inactive) and the GI50 (A549) was > 100 µM (inactive). For the same compound, the GI50 (SK-MEL-2) was > 100 µM (inactive), the GI50 (HOP-92) was 34.6 µM (inactive) and the GI50 (SK-MEL-5) was > 100 µM (inactive). The GI50 (MDA-N) was > 100 µM (inactive), the GI50 (IGROV-1) was > 100 µM (inactive) and the GI50 (786-0) was > 100 µM (inactive). The GI50 (UACC-62) was > 100 µM (inactive), the GI50 (TK-10) was > 100 µM (inactive) and the GI50 (CAKI-1) was > 100 µM (inactive). For the same compound, the GI50 (RPMI-8226) was > 100 µM (inactive), the GI50 (MDA-MB-435) was > 100 µM (inactive) and the GI50 (HCT-15) was greater than 100 µM. The GI50 (MDA-MB-231) was > 100 µM (inactive), the GI50 (SF-268) was > 100 µM (inactive) and the GI50 (HCT-116) was > 100 µM (inactive). The GI50 (LOX IMVI) was > 100 µM (inactive), the GI50 (SK-MEL-28) was > 100 µM (inactive) and the GI50 (OVCAR-5) was > 100 µM (inactive). The GI50 (SN12C) was > 100 µM (inactive), the GI50 (PC-3) was > 100 µM (inactive) and the GI50 (U-251) was > 100 µM (inactive). For the same compound, the GI50 (OVCAR-3) was 36 µM (inactive), the GI50 (SNB-75) was 18.9 µM (inactive) and the GI50 (SW-620) was > 100 µM (inactive). The GI50 (SF-295) was > 100 µM (inactive), the GI50 (NCI-H226) was > 100 µM (inactive) and the GI50 (CCRF-CEM) was > 100 µM (inactive). For the same compound, the GI50 (HCC 2998) was > 100 µM (inactive), the GI50 (SNB-19) was 69.7 µM (inactive) and the GI50 (T47D) was > 100 µM (inactive). The GI50 (OVCAR-4) was > 100 µM (inactive), the GI50 (EKVX) was > 100 µM (inactive) and the GI50 (NCI-H23) was > 100 µM (inactive). The GI50 (NCI-H460) was > 100 µM (inactive), the GI50 (UO-31) was > 100 µM (inactive) and the GI50 (HT-29) was > 100 µM (inactive).
In the case of `O=C(CNc1ccc(Cl)cc1Cl)Nn1c(-c2ccccc2)nc2ccccc2c1=O`, the GI50 (OVCAR-8) is reported as 35 µM (inactive), the GI50 (RXF 393) is reported as 18.9 µM (inactive) and the GI50 (HOP-62) is reported as > 10 µM (inactive). The GI50 (UACC-257) was 21.6 µM (inactive), the GI50 (A498) was > 10 µM (inactive) and the GI50 (NCI-H522) was 12 µM (inactive). For the same compound, the GI50 (BT-549) was 16.3 µM (inactive), the GI50 (COLO 205) was 11.1 µM (inactive) and the GI50 (M14) was 13.7 µM (inactive). The GI50 (K562) was 10.2 µM (inactive), the GI50 (HL-60) was 20 µM (inactive) and the GI50 (ACHN) was 17.6 µM (inactive). The GI50 (Malme-3M) was 18.2 µM (inactive), the GI50 (SR) was 13.9 µM (inactive) and the GI50 (DU-145) was 14.5 µM (inactive). The GI50 (SK-OV-3) was 28.2 µM (inactive), the GI50 (KM12) was > 10 µM (inactive) and the GI50 (MCF7) was 13.4 µM (inactive). The GI50 (NCI/ADR-RES) was 20.3 µM (inactive), the GI50 (SF-539) was 19.6 µM (inactive) and the GI50 (Hs-578T) was 23.9 µM (inactive). The GI50 (A549) was 30.5 µM (inactive), the GI50 (HOP-92) was 4.33 µM (inactive) and the GI50 (SK-MEL-5) was 5.94 µM (inactive). For the same compound, the GI50 (MDA-N) was 15.9 µM (inactive), the GI50 (IGROV-1) was 15.2 µM (inactive) and the GI50 (786-0) was 16.8 µM (inactive). The GI50 (UACC-62) was 3.34 µM (inactive), the GI50 (MOLT-4) was 5.14 µM (inactive) and the GI50 (TK-10) was 19.5 µM (inactive). For the same compound, the GI50 (RPMI-8226) was 21.3 µM (inactive), the GI50 (MDA-MB-435) was 14.9 µM (inactive) and the GI50 (HCT-15) was 19.1 µM. For the same compound, the GI50 (MDA-MB-231) was 14.8 µM (inactive), the GI50 (SF-268) was 3.86 µM (inactive) and the GI50 (HCT-116) was 16.7 µM (inactive). The GI50 (LOX IMVI) was 9.95 µM (inactive), the GI50 (SK-MEL-28) was 21.1 µM (inactive) and the GI50 (OVCAR-5) was 23 µM (inactive). For the same compound, the GI50 (SN12C) was 16.1 µM (inactive), the GI50 (PC-3) was 14.9 µM (inactive) and the GI50 (U-251) was > 10 µM (inactive). The GI50 (OVCAR-3) was 17 µM (inactive), the GI50 (SNB-75) was 15.3 µM (inactive) and the GI50 (SW-620) was 16.2 µM (inactive). The GI50 (SF-295) was 14.9 µM (inactive), the GI50 (NCI-H226) was 33.8 µM (inactive) and the GI50 (CCRF-CEM) was 2.9 µM (inactive). The GI50 (HCC 2998) was 17.7 µM (inactive), the GI50 (SNB-19) was 18.5 µM (inactive) and the GI50 (T47D) was 14.6 µM (inactive). For the same compound, the GI50 (OVCAR-4) was 13.9 µM (inactive), the GI50 (EKVX) was 19.2 µM (inactive) and the GI50 (NCI-H23) was 12.6 µM (inactive). The GI50 (NCI-H460) was 15.7 µM (inactive), the GI50 (UO-31) was 22.4 µM (inactive) and the GI50 (HT-29) was 16.1 µM (inactive).
For `CC1=NN(c2cccc(Cl)c2)C2(C1=C/C=C/c1ccccc1)C(Cl)C(=O)N2c1nc2ccccc2s1` (configuration not stated), the GI50 (OVCAR-8) was 17.9 µM (inactive), the GI50 (RXF 393) was 23.1 µM (inactive) and the GI50 (HOP-62) was 27.9 µM (inactive). For the same compound, the GI50 (UACC-257) was 36.7 µM (inactive), the GI50 (A498) was 30.2 µM (inactive) and the GI50 (NCI-H522) was 14.8 µM (inactive). The GI50 (BT-549) was 32.1 µM (inactive), the GI50 (COLO 205) was 62.7 µM (inactive) and the GI50 (M14) was 23 µM (inactive). The GI50 (K562) was 6.14 µM (inactive), the GI50 (HL-60) was 3.08 µM (inactive) and the GI50 (ACHN) was 4.76 µM (inactive). The GI50 (Malme-3M) was 39 µM (inactive), the GI50 (SR) was 1.51 µM (inactive) and the GI50 (DU-145) was 9.33 µM (inactive). For the same compound, the GI50 (SK-OV-3) was 29 µM (inactive), the GI50 (KM12) was 23.8 µM (inactive) and the GI50 (MCF7) was 9.14 µM (inactive). The GI50 (NCI/ADR-RES) was 40.5 µM (inactive), the GI50 (SF-539) was 19.2 µM (inactive) and the GI50 (Hs-578T) was 21 µM (inactive). For the same compound, the GI50 (A549) was 43 µM (inactive), the GI50 (SK-MEL-2) was 18.7 µM (inactive) and the GI50 (HOP-92) was 19.5 µM (inactive). For the same compound, the GI50 (SK-MEL-5) was 22.9 µM (inactive), the GI50 (MDA-N) was 26.8 µM (inactive) and the GI50 (IGROV-1) was 27.5 µM (inactive). The GI50 (786-0) was 11.7 µM (inactive), the GI50 (UACC-62) was 31.5 µM (inactive) and the GI50 (MOLT-4) was 1.53 µM (inactive). The GI50 (TK-10) was 53 µM (inactive), the GI50 (CAKI-1) was 9.4 µM (inactive) and the GI50 (RPMI-8226) was 4.43 µM (inactive). The GI50 (MDA-MB-435) was 24.6 µM (inactive), the GI50 (HCT-15) was 29.6 µM and the GI50 (MDA-MB-231) was 22.3 µM (inactive). The GI50 (SF-268) was 7.74 µM (inactive), the GI50 (HCT-116) was 19.3 µM (inactive) and the GI50 (LOX IMVI) was 13.1 µM (inactive). For the same compound, the GI50 (SK-MEL-28) was 26.2 µM (inactive), the GI50 (OVCAR-5) was 34.1 µM (inactive) and the GI50 (SN12C) was 34.6 µM (inactive). For the same compound, the GI50 (PC-3) was 19.3 µM (inactive), the GI50 (U-251) was 6.92 µM (inactive) and the GI50 (OVCAR-3) was 24.7 µM (inactive). The GI50 (SW-620) was 18.9 µM (inactive), the GI50 (SF-295) was 11 µM (inactive) and the GI50 (NCI-H226) was 27.4 µM (inactive). The GI50 (CCRF-CEM) was 8.05 µM (inactive), the GI50 (HCC 2998) was 25.1 µM (inactive) and the GI50 (SNB-19) was 60.8 µM (inactive). For the same compound, the GI50 (T47D) was 15.8 µM (inactive), the GI50 (OVCAR-4) was 35.7 µM (inactive) and the GI50 (EKVX) was 40.2 µM (inactive). The GI50 (NCI-H23) was 16.9 µM (inactive), the GI50 (NCI-H460) was 5.42 µM (inactive) and the GI50 (UO-31) was 21.4 µM (inactive). For the same compound, the GI50 (HT-29) was 25.7 µM (inactive).
